What is called IC50 is the point on the concentration scale where inhibition reaches its midpoint. As a reminder, the Emax is the greatest response seen or fitted, relative to the assay's reference. Broadly, the EC50 is the concentration giving half of the maximal effect.

Common to all, as to type: cell-based
Assay [1] concerns the target T1, Transient receptor potential cation channel subfamily A member 1 (Homo sapiens, UniProt O75762). As to the kind of experiment: Antagonist activity at full length human TRPA1 transfected in HEK293F cells assessed as blockade of MO-induced TRPA1 channel activation by measuring Ca2+ influx in presence of 30 uM MO by FLIPR calcium assay.
The target in assay [2] is T2, Transient receptor potential cation channel subfamily A member 1 (Macaca mulatta, UniProt A0A1D5QMT1). Nature of the assay: Antagonist activity at full length rhesus monkey TRPA1 transfected in HEK293F cells assessed as blockade of MO-induced TRPA1 channel activation by measuring Ca2+ influx in presence of 120 uM MO by FLIPR calcium assay.
T2 sequence (A0A1D5QMT1 whole entry): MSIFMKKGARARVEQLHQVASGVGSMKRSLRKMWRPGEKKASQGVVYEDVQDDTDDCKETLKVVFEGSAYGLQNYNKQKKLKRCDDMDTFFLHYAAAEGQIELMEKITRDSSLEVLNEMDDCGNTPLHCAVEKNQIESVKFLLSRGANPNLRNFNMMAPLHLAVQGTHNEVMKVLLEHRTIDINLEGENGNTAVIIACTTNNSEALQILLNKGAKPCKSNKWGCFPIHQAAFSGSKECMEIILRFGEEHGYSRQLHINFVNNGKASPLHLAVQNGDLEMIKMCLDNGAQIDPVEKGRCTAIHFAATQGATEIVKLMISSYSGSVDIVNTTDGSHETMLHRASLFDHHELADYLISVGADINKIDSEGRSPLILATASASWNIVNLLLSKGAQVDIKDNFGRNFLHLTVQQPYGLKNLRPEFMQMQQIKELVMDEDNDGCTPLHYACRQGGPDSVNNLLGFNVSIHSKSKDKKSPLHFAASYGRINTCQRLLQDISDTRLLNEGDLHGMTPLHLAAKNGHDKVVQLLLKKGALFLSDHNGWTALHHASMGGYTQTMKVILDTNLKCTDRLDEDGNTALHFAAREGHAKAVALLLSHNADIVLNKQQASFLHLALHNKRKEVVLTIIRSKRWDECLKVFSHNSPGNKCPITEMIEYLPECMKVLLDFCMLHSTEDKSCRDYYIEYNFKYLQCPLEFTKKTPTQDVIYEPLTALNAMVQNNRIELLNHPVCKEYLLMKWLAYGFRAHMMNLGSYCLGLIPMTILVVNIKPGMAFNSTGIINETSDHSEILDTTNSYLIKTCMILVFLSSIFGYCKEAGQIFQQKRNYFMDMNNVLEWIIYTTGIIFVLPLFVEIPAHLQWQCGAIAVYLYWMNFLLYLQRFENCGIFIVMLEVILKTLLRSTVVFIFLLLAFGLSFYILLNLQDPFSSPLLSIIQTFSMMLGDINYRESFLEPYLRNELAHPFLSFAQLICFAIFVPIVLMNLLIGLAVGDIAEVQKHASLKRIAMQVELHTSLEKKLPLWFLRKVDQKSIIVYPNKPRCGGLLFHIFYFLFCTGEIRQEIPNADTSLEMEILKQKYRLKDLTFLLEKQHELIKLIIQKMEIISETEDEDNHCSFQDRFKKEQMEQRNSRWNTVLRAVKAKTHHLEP
The target in assay [3] is T3, Transient receptor potential cation channel subfamily A member 1 (Rattus norvegicus, UniProt Q6RI86). Nature of the assay: Antagonist activity at full length rat TRPA1 transfected in HEK293F cells assessed as blockade of MO-induced TRPA1 channel activation by measuring Ca2+ influx in presence of 30 uM MO by FLIPR calcium assay.
T3 sequence (Q6RI86 whole entry): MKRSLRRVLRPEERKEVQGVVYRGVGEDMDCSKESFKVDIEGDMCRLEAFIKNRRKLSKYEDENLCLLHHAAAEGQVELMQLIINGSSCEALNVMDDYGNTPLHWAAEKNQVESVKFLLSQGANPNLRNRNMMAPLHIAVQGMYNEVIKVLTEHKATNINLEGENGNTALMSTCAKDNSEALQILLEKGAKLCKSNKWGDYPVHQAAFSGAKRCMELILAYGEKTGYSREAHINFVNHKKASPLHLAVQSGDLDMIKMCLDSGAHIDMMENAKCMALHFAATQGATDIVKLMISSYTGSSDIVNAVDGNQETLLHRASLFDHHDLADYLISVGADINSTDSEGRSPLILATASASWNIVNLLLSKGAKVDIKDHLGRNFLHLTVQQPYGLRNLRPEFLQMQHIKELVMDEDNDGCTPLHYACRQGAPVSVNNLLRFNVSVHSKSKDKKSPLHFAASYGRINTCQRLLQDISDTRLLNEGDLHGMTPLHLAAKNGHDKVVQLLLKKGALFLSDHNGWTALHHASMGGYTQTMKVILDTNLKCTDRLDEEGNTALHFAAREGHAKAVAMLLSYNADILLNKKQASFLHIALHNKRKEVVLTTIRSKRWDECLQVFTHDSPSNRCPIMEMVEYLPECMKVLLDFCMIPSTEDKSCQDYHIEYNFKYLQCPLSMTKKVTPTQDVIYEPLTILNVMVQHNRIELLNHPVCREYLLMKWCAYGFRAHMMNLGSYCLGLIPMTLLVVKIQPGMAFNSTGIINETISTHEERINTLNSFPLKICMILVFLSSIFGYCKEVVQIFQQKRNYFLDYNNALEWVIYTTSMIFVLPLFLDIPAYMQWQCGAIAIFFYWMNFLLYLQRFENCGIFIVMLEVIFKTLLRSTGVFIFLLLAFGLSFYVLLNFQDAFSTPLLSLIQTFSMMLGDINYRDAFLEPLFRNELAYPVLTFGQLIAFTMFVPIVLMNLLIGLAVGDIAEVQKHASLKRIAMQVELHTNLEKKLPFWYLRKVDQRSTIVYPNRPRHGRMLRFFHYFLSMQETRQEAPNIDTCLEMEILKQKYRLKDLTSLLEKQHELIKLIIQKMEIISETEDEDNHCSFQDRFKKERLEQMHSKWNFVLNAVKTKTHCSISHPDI
The target of assay [4] is T4, Transient receptor potential cation channel subfamily A member 1 (Mus musculus, UniProt Q8BLA8). Nature of the assay: Antagonist activity at full length mouse TRPA1 transfected in HEK293F cells assessed as blockade of MO-induced TRPA1 channel activation by measuring Ca2+ influx in presence of 30 uM MO by FLIPR calcium assay.
T4 sequence (Q8BLA8 whole entry): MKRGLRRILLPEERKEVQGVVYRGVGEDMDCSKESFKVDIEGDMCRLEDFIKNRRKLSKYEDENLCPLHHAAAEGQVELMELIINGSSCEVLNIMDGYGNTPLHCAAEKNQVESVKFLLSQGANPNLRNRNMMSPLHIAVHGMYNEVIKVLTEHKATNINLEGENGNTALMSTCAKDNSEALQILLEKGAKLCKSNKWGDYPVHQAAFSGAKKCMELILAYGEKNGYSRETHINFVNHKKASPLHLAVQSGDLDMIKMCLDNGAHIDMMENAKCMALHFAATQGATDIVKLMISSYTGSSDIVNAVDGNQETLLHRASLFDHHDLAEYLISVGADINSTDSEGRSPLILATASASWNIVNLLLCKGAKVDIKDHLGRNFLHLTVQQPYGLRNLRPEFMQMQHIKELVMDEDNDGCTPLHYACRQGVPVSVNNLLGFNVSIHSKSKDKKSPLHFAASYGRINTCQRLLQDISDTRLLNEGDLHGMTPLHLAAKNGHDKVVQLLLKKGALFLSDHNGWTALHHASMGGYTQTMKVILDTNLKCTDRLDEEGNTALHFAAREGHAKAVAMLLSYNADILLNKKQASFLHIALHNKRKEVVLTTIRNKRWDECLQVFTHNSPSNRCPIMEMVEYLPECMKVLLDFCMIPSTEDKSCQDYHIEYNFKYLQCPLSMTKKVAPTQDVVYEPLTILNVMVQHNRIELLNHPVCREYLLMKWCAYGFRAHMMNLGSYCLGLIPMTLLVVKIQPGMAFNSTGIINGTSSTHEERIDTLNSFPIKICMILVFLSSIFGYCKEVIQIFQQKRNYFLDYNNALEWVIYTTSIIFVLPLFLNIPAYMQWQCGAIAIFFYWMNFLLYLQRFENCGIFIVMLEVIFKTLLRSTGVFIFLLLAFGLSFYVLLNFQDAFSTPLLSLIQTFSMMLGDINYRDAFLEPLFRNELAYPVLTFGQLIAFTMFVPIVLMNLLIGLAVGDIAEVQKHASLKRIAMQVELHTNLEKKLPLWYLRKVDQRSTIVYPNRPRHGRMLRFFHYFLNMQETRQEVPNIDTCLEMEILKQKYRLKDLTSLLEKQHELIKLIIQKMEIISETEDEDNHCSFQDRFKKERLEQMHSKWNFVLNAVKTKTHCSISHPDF
Assay [5] addresses Transient receptor potential cation channel subfamily A member 1 (Rattus norvegicus) (UniProt Q6RI86). As to the kind of experiment: Agonist activity at full length rat TRPA1 transfected in HEK293F cells assessed as increase in Ca2+ influx by FLIPR calcium assay relative to MO. The note with it: filed as agonist.
The target in assay [6] is T3, Transient receptor potential cation channel subfamily A member 1. As to the kind of experiment: Agonist activity at full length rat TRPA1 transfected in HEK293F cells assessed as increase in Ca2+ influx by FLIPR calcium assay.
Assay [7] addresses T1, Transient receptor potential cation channel subfamily A member 1. As to the kind of experiment: Agonist activity at full length human TRPA1 transfected in HEK293F cells assessed as increase in Ca2+ influx by FLIPR calcium assay.
Assay [8] shares this target. Nature of the assay: Agonist activity at full length human TRPA1 transfected in HEK293F cells assessed as increase in Ca2+ influx by FLIPR calcium assay relative to MO. The note with it: filed as agonist.
Assay [9] addresses T2, Transient receptor potential cation channel subfamily A member 1. As to the kind of experiment: Agonist activity at rhesus monkey TRPA1 transfected in HEK293F cells assessed as increase in Ca2+ influx by FLIPR calcium assay.
Assay [10] has as its target T5, Transient receptor potential cation channel subfamily A member 1 (Macaca mulatta) (UniProt A0A1D5QMT1). Nature of the assay: Agonist activity at rhesus monkey TRPA1 transfected in HEK293F cells assessed as increase in Ca2+ influx by FLIPR calcium assay relative to MO. The note with it: filed as agonist.
Assay [11] addresses T4, Transient receptor potential cation channel subfamily A member 1. Nature of the assay: Agonist activity at full length mouse TRPA1 transfected in HEK293F cells assessed as increase in Ca2+ influx by FLIPR calcium assay.
In assay [12] the target is Transient receptor potential cation channel subfamily A member 1 (Mus musculus) (UniProt Q8BLA8). Nature of the assay: Agonist activity at full length mouse TRPA1 transfected in HEK293F cells assessed as increase in Ca2+ influx by FLIPR calcium assay relative to control. The note with it: filed as agonist.
Sequence of Transient receptor potential cation channel subfamily A member 1 (Mus musculus) (Q8BLA8 whole entry): as above
Assay [13] deals with T2, Transient receptor potential cation channel subfamily A member 1. As to the kind of experiment: Activation of full length rhesus monkey TRPA1 transfected in HEK293F cells assessed as 1 mM of MO-induced current Blockade at -60 mV by whole-cell recording analysis.
Assay [14] has the same target. Nature of the assay: Activation of full length rhesus monkey TRPA1 transfected in HEK293F cells assessed as 120 uM of MO-induced current Blockade at -60 mV by whole-cell recording analysis.
In assay [15] the target is T1, Transient receptor potential cation channel subfamily A member 1. As to the kind of experiment: Antagonist activity at full length human TRPA1 transfected in HEK293F cells assessed as increase in Ca2+ influx by FLIPR calcium assay. The note with it: filed as antagonist.
Assay [16] concerns the target T5, Transient receptor potential cation channel subfamily A member 1 (Macaca mulatta). Nature of the assay: Antagonist activity at rhesus monkey TRPA1 transfected in HEK293F cells assessed as increase in Ca2+ influx by FLIPR calcium assay. Particulars: filed as antagonist.
The target in assay [17] is Transient receptor potential cation channel subfamily A member 1 (Rattus norvegicus) (UniProt Q6RI86). As to the kind of experiment: Agonist activity at full length rat TRPA1 transfected in HEK293F cells assessed as blockade of MO-induced TRPA1 channel activation by measuring Ca2+ influx in presence of 30 uM MO by FLIPR calcium assay. The note with it: filed as agonist.
Sequence of Transient receptor potential cation channel subfamily A member 1 (Rattus norvegicus) (Q6RI86 whole entry): as the sequence (Q6RI86 whole entry) above

In assay [18] the target is Transient receptor potential cation channel subfamily A member 1 (Mus musculus) (UniProt Q8BLA8). As to the kind of experiment: Agonist activity at full length mouse TRPA1 transfected in HEK293F cells assessed as blockade of MO-induced TRPA1 channel activation by measuring Ca2+ influx in presence of 30 uM MO by FLIPR calcium assay. The note with it: filed as agonist.

In assay [19] the target is T1, Transient receptor potential cation channel subfamily A member 1. As to the kind of experiment: Agonist activity at full length human TRPA1 transfected in HEK293F cells assessed as increase in Ca2+ influx in presence of 30 to 1000 uM MO by FLIPR calcium assay.

The source made the active and inactive calls. The calls are words filed in the database; no cut-off is given here.

T1 sequence (O75762 whole entry): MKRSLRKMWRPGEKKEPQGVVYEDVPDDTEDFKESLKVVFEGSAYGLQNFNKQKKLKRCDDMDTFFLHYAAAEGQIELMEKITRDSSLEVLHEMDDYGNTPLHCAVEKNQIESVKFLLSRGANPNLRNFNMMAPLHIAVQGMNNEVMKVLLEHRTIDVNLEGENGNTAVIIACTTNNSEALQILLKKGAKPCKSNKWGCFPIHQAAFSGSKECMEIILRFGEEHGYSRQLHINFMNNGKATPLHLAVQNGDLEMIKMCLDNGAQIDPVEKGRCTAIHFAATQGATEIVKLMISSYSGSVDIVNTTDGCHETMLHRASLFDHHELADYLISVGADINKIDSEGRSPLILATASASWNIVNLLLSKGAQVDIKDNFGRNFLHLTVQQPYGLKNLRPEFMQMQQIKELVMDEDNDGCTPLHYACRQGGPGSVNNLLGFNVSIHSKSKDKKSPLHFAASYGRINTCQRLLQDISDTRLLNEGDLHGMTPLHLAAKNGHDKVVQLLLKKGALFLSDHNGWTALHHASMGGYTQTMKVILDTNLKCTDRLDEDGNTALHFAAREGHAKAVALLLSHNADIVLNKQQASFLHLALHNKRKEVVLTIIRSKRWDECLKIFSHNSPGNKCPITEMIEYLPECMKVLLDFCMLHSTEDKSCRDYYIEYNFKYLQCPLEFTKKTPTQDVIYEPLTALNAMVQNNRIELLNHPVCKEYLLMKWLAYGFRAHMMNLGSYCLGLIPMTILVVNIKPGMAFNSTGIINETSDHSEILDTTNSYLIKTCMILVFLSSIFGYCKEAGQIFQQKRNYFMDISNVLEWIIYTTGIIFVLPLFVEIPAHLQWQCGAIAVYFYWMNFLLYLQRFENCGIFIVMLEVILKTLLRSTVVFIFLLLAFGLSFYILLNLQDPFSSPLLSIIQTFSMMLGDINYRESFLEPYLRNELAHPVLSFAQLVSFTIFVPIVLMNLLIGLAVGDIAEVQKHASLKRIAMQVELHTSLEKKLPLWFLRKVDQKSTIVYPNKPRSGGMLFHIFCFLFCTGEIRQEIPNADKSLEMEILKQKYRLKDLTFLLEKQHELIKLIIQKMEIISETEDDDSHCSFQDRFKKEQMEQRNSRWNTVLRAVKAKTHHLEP
T5 sequence (A0A1D5QMT1 as listed by the source): as the sequence (A0A1D5QMT1 whole entry) above

With `CC(C)c1ccc(NC(=O)Cn2cnc3c2c(=O)n(C)c(=O)n3C)cc1`, the IC50 worked out at 7.4 µM in assay [1], 7.3 µM in [2], 7.6 µM in assay [3] and 6.8 µM in [4].

For `O=C/C=C/c1ccccc1`, the Emax in assay [5] is 89%; in [8], 81%; in [10], 84%; in assay [12], 71%. Further, the EC50 is 5.4 µM in [6], 12.5 µM in assay [7], 23.9 µM in [9] and 3.4 µM in assay [11].

In the case of `CCCCC/C=C/C=C1/C(=O)C=C[C@@H]1C/C=C\CCCC(=O)O`, the Emax in assay [5] was 70%; in assay [8] it was 75%; in [12], 65%. For the same compound, the EC50 was 19.9 µM in assay [6], 40.4 µM in assay [7], > 100 µM in [9] and 56.4 µM in assay [11].

As to `CCCCCC(O)/C=C/C=O` (configuration not stated) [4-HYDROXYNON-2-ENAL], the Emax is 76% in assay [5], 80% in assay [8] and 72% in assay [12]. For the same compound, the EC50 in assay [6] was 6 µM; in [7], 9.9 µM; in assay [9], > 100 µM; in assay [11] it was 6.6 µM.

Take `CCC(=N\O)/C(C)=C/c1ccc(F)cc1` [A-079]: the concentration for half-maximal inhibition (IC50) turned out to be 1.63 µM in assay [13]; 0.6 µM in assay [14]; 0.6 µM in assay [2]; 0.33 µM in assay [3]; 0.75 µM in [4].

As for `CC(=C\c1ccc(Cl)cc1)/C(C)=N/O` [AP18 5], the IC50 in [1] came to 9.1 µM; in assay [2] it was 56.4 µM; in assay [3] it was 39.9 µM; in assay [4], 33 µM.

Consider `Cn1c(=O)c2c(ncn2C)n(C)c1=O` [CAFFEINE], for which the Emax in [5] turned out to be 44%; in assay [12], 52%. Moreover, the EC50 in assay [6] is 95.9 µM; in [11], 61.8 µM. Besides, the outcome in assay [15], in assay [16], in [17] and in assay [18] was Active. Also, the IC50 in assay [1] was 988 µM; in [2], > 1000 µM.

Regarding `CC1CCC(C(C)C)C(O)C1` (configuration not stated) [MENTHOL], the figures for the Emax in [5], in [8] and in assay [12] were 41%, 80% and 40%, respectively. For the same compound, the concentration giving a half-maximal response (EC50) in assay [6] was 7.1 µM; in [7], 278 µM; in assay [9], > 300 µM; in assay [11], 5.2 µM. Moreover, the IC50 in [1] is > 1000 µM; in assay [2], > 1000 µM; in assay [3], 511 µM; in assay [4] it was 951 µM. Besides, in assay [19], the result was inactive.

With `CC(C)=CCC/C(C)=C/CC/C(C)=C/CSc1ccccc1C(=O)O` [SALIRASIB], the Emax in assay [5] is 89%; in assay [8], 106%; in [10], 112%; in assay [12], 105%. Besides, the EC50 was 102 µM in [6], 4.9 µM in assay [7], 167 µM in assay [9] and 85.5 µM in assay [11].

In the case of `NC(=O)c1cccc(-c2cccc(OC(=O)NC3CCCCC3)c2)c1` [URB-597], the values for the Emax in assay [5], in [8] and in assay [12] were 72%, 85% and 77%, respectively. In addition, the EC50 in assay [6] was 129 µM; in assay [7], 7.5 µM; in assay [9] it was > 100 µM; in assay [11] it was 74.4 µM.

These data come from ChEMBL document CHEMBL5705895, “Species comparison and pharmacological characterization of human, monkey, rat, and mouse TRPA1 channels” (J Pharmacol Exp Ther, 2012).
